Results on three molecules are retold here after patent US9416182B2, “Anti-TNF-anti-IL-17 bispecific antibodies” (Eli Lilly and Company, priority 2013, dated 2016).

Usually IC50 stands for the point on the concentration scale where inhibition reaches its midpoint.

Experiment [1] concerns human skin grafts on immunodeficient mice. As to the kind of experiment: Humanized psoriasis mouse model (human skin grafts, PBMC injection). Particulars: twice daily topical; after three weeks. In kind it is in vivo. The source says: A humanized mouse model of psoriasis is a model that involves grafting of human non-lesional skin biopsies from psoriasis patients onto the back skin of immunodeficient mice. After the human skin has grafted (3 to 4 weeks later), T-cell activated human peripheral blood mononuclear cells (PBMCs) from the same donor are intradermally injected into the graft to induce psoriasis-like epidermal thickening (Wrone-Smith and Nickoloff J., Clin Invest. 15; 98(8):1878-87 (1996)).
After three weeks the mice are euthanized, the grafted skin was isolated, and the thickness of the epidermis is measured.

The test system of experiment [2] is human TNFα and human IL-17. The experiment can be described thus: Inhibition of CXCL1 production from HT-29 cells induced by combination of IL-17 and TNF. Particulars: antibodies at fixed dose of 4 nM, 3 pM TNFα and 200 pM IL-17. In kind it is cell-based. The protocol: As described above, HT-29 cells are human colorectal adenocarcinoma epithelial cells that naturally express the IL-17 and TNF receptors. Incubation of HT-29 cells with human TNFα and human IL-17 results in the production of CXCL1, which can be measured using a commercially available ELISA.
Testing is carried out in five replicate wells per treatment. Assay medium is used for “medium alone” and “IL-17+TNF alone”. Anti-IL-17 antibody (U.S. Pat. No. 7,838,638); anti-TNFα antibody (adalimumab); and combination of anti-IL-17 antibody/anti-TNF antibody are used as controls in the assay. Control antibodies are tested at the same molar range as the bispecific antibody. […]
HT-29 cells are routinely cultured in assay medium [McCoy's 5A containing 10% FBS, penicillinG (0.2 U/mL) and streptomycin (0.2 mcg/mL)]. […] Cell density is measured with Invitrogen Countess, and 20,000 HT-29 cells (in 100 μL) are added to each of the 96-well plates. […]
At the end of the assay, the plates are centrifuged (500×g for 5 minutes at room temperature), and the cell culture medium is transferred to polypropylene 96-well plates, which are sealed and frozen at −80° C. […] CXCL1 levels in medium are measured with a CXCL1 sandwich ELISA (R&D Systems DuoSet #DY275), as per the manufacturer's instructions. At the end of the ELISA reactions, plates are read at 450 nm on a microplate reader (Molecular Devices VersaMax Tunable).

Experiment [3] concerns membrane bound human TNFα. The experiment can be described thus: Inhibition of membrane bound human TNFα induced cytotoxicity in L929 cells. The class given is cell-based. As to conditions: average of 3 independent experiments+/−SEM; read-out: IC50, killing of L929 cells by human non-cleavable membrane bound TNFα CHO cells. On the procedure: The non-cleavable TNFα construct is stably transfected to Chinese hamster ovary (CHO) cells. These cells express membrane bound TNFα as shown by flow cytometry. Incubation of L929 cells with CHO cells expressing human non-cleavable membrane bound TNFα results in rapid L929 cell death.
CHO cells expressing membrane bound human TNFα are routinely maintained in selection medium (AM2001 media, an internal CHO growth media without MSX, 8 mM glutamine, GS supplement, HT supplement with 500 μg/mL G418). On the day of the assay, the cells are counted, rinsed with 1×PBS (no Ca^++ or Mg^++), centrifuged at 215×g for 5 mM and re-suspended at 50,000 cells/mL in L929 assay medium together with Actinomycin-D (6.25 μg/mL). 500 cells (in 10 μL) of cell suspension are added to each concentration of antibody mixtures that were incubated for 60 minutes at 37° C., 95% relative humidity, 5% CO2. […] The cell death is measured using an MTT cytotoxicity assay as described above for soluble TNFα L929 assay.

Another experiment has as its target human TNFα (Homo sapiens, UniProt P01375). The experiment can be described thus: Inhibition of human TNFα-induced production of CXCL1 in vivo. As to conditions: C57BI/6J mice; 16.7 nmol/kg subcutaneously; TNFα challenge two days later; plasma two hours after challenge. On the set-up: species or system mouse. The protocol:
Two days later, mice receive a single intraperitoneal injection of human IL-17 (3 μg/mouse) or human TNFα (1 μg/mouse). Two hours after cytokine challenge, the mice are sacrificed and plasma is analyzed for CXCL1 using a commercial ELISA.

membrane bound human TNFα, sequence (P01375 89-233 limits assumed): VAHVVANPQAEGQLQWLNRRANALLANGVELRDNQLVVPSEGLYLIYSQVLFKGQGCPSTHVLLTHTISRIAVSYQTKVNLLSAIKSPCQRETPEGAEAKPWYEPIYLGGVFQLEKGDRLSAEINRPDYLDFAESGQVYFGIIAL
human TNFα, sequence (P01375 77-233 limits assumed): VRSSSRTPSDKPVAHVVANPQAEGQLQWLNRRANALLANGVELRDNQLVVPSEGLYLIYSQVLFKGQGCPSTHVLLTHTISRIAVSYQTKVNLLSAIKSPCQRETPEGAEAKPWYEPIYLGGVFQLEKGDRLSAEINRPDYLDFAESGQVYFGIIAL

Consider `C[C@H]1C[C@H]2[C@@H]3CCC4=CC(=O)C=C[C@]4(C)[C@@]3(F)[C@@H](O)C[C@]2(C)[C@@]1(O)C(=O)CO` [Betamethasone, betamethasone], for which the “Mean Epidermal Thickness” value in experiment [1] came out at 74.9 μm.

In the case of adalimumab [anti-TNFα], in experiment [2], the “percent human CXCL1 left after incubation (TNF+IL-17 alone being 100%)” value was 8.97+/−2.65%.

Turning to “adalimumab with IgG4 isotype: TNFα neutralizing antibody (adalimumab with IgG4 isotype), positive control in L929 assays and in vivo CXCL1 (Table 2)”, the IC50 in experiment [3] was 0.669 nM. The “Average % inhibition of human TNFα-induced CXCL1 production in vivo” value in the experiment with human TNFα was 89.4 ± 2%.
